Measurements: patent US8557532B2, “Diagnosis and treatment of drug-resistant Ewing'S sarcoma” (The University of Utah Research Foundation, priority 2010, dated 2013)

How the values were obtained:
[1] = system: Ewing's sarcoma cells with decreased levels of GSTM4; experiment: MTT survival assay, wild-type (luc-RNAi) versus reduced GSTM4 (GSTM4-4-RNAi) Ewing's sarcoma cells; assay type: cell-based, human
Protocol: Chemotherapeutic sensitivity assays. The sensitivity of Ewing's sarcoma cells to chemotherapeutic agents was determined via the following experimental procedures. The indicated Ewing's sarcoma cells were seeded at a density of 2×10^4 cells/well in 24-well plates on day-0. On day 1, cells were incubated with varying concentrations of the indicated drug or drugs for 3 days. Subsequently, MTT cell proliferation assays were performed according to the manufacturer's instructions (Cayman Chemical Company, Ann Arbor, Mich.).
To test whether GSTM4 contributed to the chemotherapeutic resistance profile of Ewing's sarcoma, wild-type (luc-RNAi) and reduced GSTM4 (GSTM4-4-RNAi) cells were treated with increasing dosages of chemotherapeutic drugs and tested using MTT survival assays. The chemotherapeutic agents that were tested included etoposide, doxorubicin, and melphalan.
It was further determined that GSTM4 can alter the sensitivity of Ewing's sarcoma cells for fenretinide. […] It was further determined that decreased GSTM4 levels can change intracellular redox potential.
JS-K (provided by Dr. Paul Shami at the University of Utah) is a GST-activated prodrug with potent anti-neoplastic activity. A673, Ewing's sarcoma, cells with wild type (Luc-RNAi) or decreased GSTM4 levels (GSTM4-RNAi infected cells) were seeded in 24-well plates at a density of 2×10^4 cells/well. GSTM4 decreased cells or negative controls were treated with increasing concentrations of JS-K (0, 0.3125, 0.625, 1.25, 2.5, 5, or 10 μM) for 72 hours, followed by an MTT cell viability analysis.

A673 cells = experiment: MTT cell proliferation assay in A673 Ewing's sarcoma cells; assay type: cell-based; details: Homo sapiens, 72 h, 3 days, read-out: IC50, inhibition of A673 cell proliferation
Protocol: The A673 cells were seeded at a density of 2×10^4 cells/well in 24-well plate on day 0.

Compound | Sensitivity of cells with decreased GSTM4 levels to the drug compared to control cells [1] | IC50 (A673 cells) [nM]
CC1=C(/C=C/C(C)=C/C=C/C(C)=C/C(=O)Nc2ccc(O)cc2)C(C)(C)CCC1 [fenretinide] | more sensitive | –
COc1cccc2c1C(=O)c1c(O)c3c(c(O)c1C2=O)C[C@@](O)(C(=O)CO)C[C@@H]3O[C@H]1C[C@H](N)[C@H](O)[C@H](C)O1 [doxorubicin] | not sensitive | –
CCOC(=O)N1CCN(/[N+]([O-])=N/Oc2ccc([N+](=O)[O-])cc2[N+](=O)[O-])CC1 [JS-K, O^2-(2,4-Dinitrophenyl)1-[(4-Ethoxycarbonyl)piperazin-1-yl]diazen-1-ium-1,2-diolate] | less sensitive | –
COc1cc([C@@H]2c3cc4c(cc3[C@@H](O[C@@H]3O[C@@H]5CO[C@@H](C)O[C@H]5[C@H](O)[C@H]3O)[C@H]3COC(=O)[C@H]23)OCO4)cc(OC)c1O [etoposide] | increase in sensitivity | –
O=[N+]([O-])c1ccc(SCCCCCCO)c2nonc12 [NBDHEX, 6-(7-nitro-2,1,3-benzoxadiazol-4-ylthio) hexanol] | – | 500
